Experimental findings from patent publication US20240109881A1, “Heteroaryl Compounds as Ligand Directed Degraders of IRAK4” (Bristol-Myers Squibb Company, priority 2022, published 2024) are described below.

The target in the assay is T1, IRAK4 (Homo sapiens, UniProt Q9NWZ3).
T1 construct: endogenous in cells; host or cells: THP-1 cells
T1 sequence (Q9NWZ3 1-460): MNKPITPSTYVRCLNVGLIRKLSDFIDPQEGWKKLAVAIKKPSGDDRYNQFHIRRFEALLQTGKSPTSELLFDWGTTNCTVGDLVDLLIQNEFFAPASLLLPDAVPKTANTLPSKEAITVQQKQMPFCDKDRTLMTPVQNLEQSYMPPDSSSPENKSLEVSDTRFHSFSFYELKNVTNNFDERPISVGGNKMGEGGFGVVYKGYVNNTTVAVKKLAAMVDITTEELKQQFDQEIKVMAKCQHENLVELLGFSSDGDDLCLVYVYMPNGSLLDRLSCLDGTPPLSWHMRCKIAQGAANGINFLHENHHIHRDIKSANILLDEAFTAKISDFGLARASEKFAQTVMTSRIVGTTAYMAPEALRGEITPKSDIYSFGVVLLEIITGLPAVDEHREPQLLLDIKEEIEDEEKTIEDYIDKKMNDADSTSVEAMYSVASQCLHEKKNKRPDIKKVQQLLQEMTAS
Description: ALE THP1 HTRF (Advanced Lipoxidation End Product THP1 Homogeneous Time Resolved Fluorescence). Type of assay: cell-based. The conditions noted are these: THP1 cells. Put shortly:
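HTRF read-out of IRAK4 protein: anti-IRAK4 d2 and cryptate antibody pair added to BCA-normalized lysates, overnight dark room-temperature incubation. Lysis ran 45 min with shaking at room temperature; buffer, cryptate-only and negative controls included.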
As usually defined, the EC50 is the concentration that produces a half-maximal response. High values mean lower potency in that assay, low ones higher potency in that assay. Take `N#Cc1cnc2c(-c3cc(NC4CC4)c(C(=O)NC4CCC(CCN5CCN(c6ccc(C7CCC(=O)NC7=O)cc6)CC5)CC4)cn3)cnn2c1` (centres unmarked) [P-93]: the “ALE THP1 HTRF YMIN” value is recorded as 13.0% and the EC50 turned out to be 0.023 µM.

Consider `N#Cc1cnc2c(cnn2-c2cc(NC3CCCC3)c(C(=O)N[C@H]3CC[C@H](CN4CCN(c5ccc6c(c5)C(=O)N(C5CCC(=O)NC5=O)C6)CC4)CC3)cn2)c1` (some centres unmarked) [P-17], for which the “ALE THP1 HTRF YMIN” value is recorded as 24.6% and the EC50 was determined as 0.013 µM.

For the compound `N#Cc1cnc2c(cnn2-c2cc(NC3CC3)c(C(=O)N[C@H]3CC[C@H](C(F)(F)CN4CCN(c5ccc(C6CCC(=O)NC6=O)cc5)CC4)CC3)cn2)c1` (some centres unmarked) [P-104, 6-(5-cyanopyrazolo[3,4-b]pyridin-1-yl)-4-(cyclopropylamino)-N-[4-[2-[4-[4-(2,6-dioxo-3-piperidyl)phenyl]piperazin-1-yl]-1,1-difluoro-ethyl]cyclohexyl]pyridine-3-carboxamide], the “ALE THP1 HTRF YMIN” value is 16.0% and the EC50 was 0.047 µM.

With `C[C@H](C#N)Nc1cc(-n2ncc3cc(C#N)cnc32)ncc1C(=O)N[C@H]1CC[C@H](CCN2C[C@H](C)N(c3ccc(C4CCC(=O)NC4=O)cc3)C[C@@H]2C)CC1` (some centres unmarked) [P-158], the “ALE THP1 HTRF YMIN” value is reported as 16.0% and the midpoint of the response, the EC50, lay at 0.065 µM.

`N#Cc1cnc2c(cnn2-c2cc(NCC3CCCO3)c(C(=O)N[C@H]3CC[C@H](CCN4CCN(c5ccc(C6CCC(=O)NC6=O)cc5)CC4)CC3)cn2)c1` (some centres unmarked) [P-113]: the “ALE THP1 HTRF YMIN” value amounted to 18.7% and the half-maximal effective concentration (EC50) turned out to be 0.074 µM.

Consider `COc1cc(N2C[C@H](C)N(CC[C@H]3CC[C@H](NC(=O)c4cnc(-n5ncc6cc(C#N)cnc65)cc4N[C@H](C)C#N)CC3)[C@@H](C)C2)ccc1C1CCC(=O)NC1=O` (some centres unmarked) [P-153], for which the “ALE THP1 HTRF YMIN” value stood at 4.5% and the response was half-maximal at 0.017 µM (EC50).

Turning to `N#Cc1cnc2c(cnn2-c2cc(NC3CC3)c(C(=O)N[C@H]3CC[C@H](C4C[C@@H]4N4CCN(c5ccc(C6CCC(=O)NC6=O)cc5)CC4)CC3)cn2)c1` (single isomer, unassigned) [P-110], the “ALE THP1 HTRF YMIN” value was 16.0% and the EC50 was 0.019 µM.

As for `CN(C1CCN(c2ccc3c(c2)C(=O)N(C2CCC(=O)NC2=O)C3)CC1)[C@H]1CC[C@H](n2cc(-c3cnc(-n4ncc5cc(C#N)cnc54)cc3NC3CCCC3)nn2)CC1` (some centres unmarked) [P-27], the “ALE THP1 HTRF YMIN” value is 28.4% and a half-maximal effect (EC50) was put at 0.04 µM.

With `N#Cc1cnc2c(cnn2-c2cc(N[C@H]3CCC[C@@H]3O)c(C(=O)NC3CCC(CCN4CCN(c5ccc(C6CCC(=O)NC6=O)cc5)CC4)CC3)cn2)c1` (some centres unmarked) [P-63], the “ALE THP1 HTRF YMIN” value came out at 8.3% and the concentration giving a half-maximal response (EC50) was determined as 0.006 µM.

In the case of `CC1(Nc2cc(-n3ncc4cc(C#N)cnc43)ncc2C(=O)NC2CCC(CCN3CCN(c4ccc(C5CCC(=O)NC5=O)cc4)CC3)CC2)CC1` (centres unmarked) [P-76], the “ALE THP1 HTRF YMIN” value was 8.3% and a half-maximal effect (EC50) was put at 0.007 µM.

Regarding `C[C@H](C#N)Nc1cc(-n2ncc3cc(C#N)c(N)nc32)ncc1C(=O)N[C@H]1CC[C@H](CCN2CCN(c3ccc(C4CCC(=O)NC4=O)cc3)CC2)CC1` (some centres unmarked) [P-135], the “ALE THP1 HTRF YMIN” value was found to be 7.3% and the midpoint of the response, the EC50, lay at 0.001 µM.

With `CN(C[C@H]1CC[C@H](NC(=O)c2cnc(-n3ncc4cc(C#N)cnc43)cc2NC2CC2)CC1)C1CCN(c2ccc3c(c2)CN(C2CCC(=O)NC2=O)C3=O)CC1` (some centres unmarked) [P-127], the “ALE THP1 HTRF YMIN” value is given as 24.5% and the EC50 stood at 0.008 µM.

Consider `N#Cc1cnc2c(cnn2-c2cc(NC3CC3)c(C(=O)NC3CCC(CCN4CCN(c5ccc(C6CCC(=O)NC6=O)cn5)CC4)CC3)cn2)c1` (centres unmarked) [P-98], for which the “ALE THP1 HTRF YMIN” value is on record as 10.5% and the EC50 was determined as 0.017 µM.

Turning to `CN(CC1CCN(c2ccc(C3CCC(=O)NC3=O)cc2)CC1)[C@H]1CC[C@H](NC(=O)c2cnc(-n3ncc4cc(C#N)cnc43)cc2NC2CC2)CC1` (some centres unmarked) [P-103, 6-(5-cyanopyrazolo[3,4-b]pyridin-1-yl)-4-(cyclopropylamino)-N-[4-[[1-[4-(2,6-dioxo-3-piperidyl)phenyl]-4-piperidyl]methyl-methyl-amino]cyclohexyl]pyridine-3-carboxamide], the “ALE THP1 HTRF YMIN” value was 16.2% and the EC50 turned out to be 0.029 µM.

As to `N#Cc1cnc2c(cnn2-c2cc(NC34CC(C3)C4)c(C(=O)NC3CCC(CCN4CCN(c5ccc(C6CCC(=O)NC6=O)cc5)CC4)CC3)cn2)c1` (centres unmarked) [P-92], the “ALE THP1 HTRF YMIN” value is given as 11.3% and a half-maximal effect (EC50) was put at 0.038 µM.

As to `N#Cc1cnc2c(cnn2-c2cc(NC3CCC3)c(C(=O)NC3CCC(CCN4CCN(c5ccc(C6CCC(=O)NC6=O)cc5)CC4)CC3)cn2)c1` (centres unmarked) [P-82], the “ALE THP1 HTRF YMIN” value was 8.6% and the EC50 was 0.23 µM.

As for `CCNc1cc(-n2ncc3cc(C#N)cnc32)ncc1C(=O)NC1CCC(CCN2CCN(c3ccc(C4CCC(=O)NC4=O)cc3)CC2)CC1` (centres unmarked) [P-71], the “ALE THP1 HTRF YMIN” value was 10.9% and the EC50 stood at 0.008 µM.

Take `N#Cc1cnc2c(cnn2-c2cc(NC3CCCC3)c(-c3cn([C@H]4CC[C@H](NC(=O)C5CCN(c6ccc7c(c6)C(=O)N(C6CCC(=O)NC6=O)C7)CC5)CC4)nn3)cn2)c1` (some centres unmarked) [P-16, N-((1r,4r)-4-(4-(6-(5-cyano-1H-pyrazolo[3,4-b]pyridin-1-yl)-4-(cyclopentylamino)pyridin-3-yl)-1H-1,2,3-triazol-1-yl)cyclohexyl)-1-(2-(2,6-dioxopiperidin-3-yl)-3-oxoisoindolin-5-yl)piperidine-4-carboxamide]: the “ALE THP1 HTRF YMIN” value was 26.9% and the EC50 amounted to 0.016 µM.

For the compound `N#Cc1cnc2c(cnn2-c2cc(NC3CCCC3)c(-c3cn([C@H]4CC[C@H](C(=O)N5CCC(C(=O)Nc6ccc(N7CCC(=O)NC7=O)cc6)CC5)CC4)nn3)cn2)c1` [P-45, 1-[4-[4-[6-(5-Cyanopyrazolo[3,4-b]pyridin-1-yl)-4-(cyclopentylamino)-3-pyridyl]triazol-1-yl]cyclohexanecarbonyl]-N-[4-(2,4-dioxohexahydropyrimidin-1-yl)phenyl]piperidine-4-carboxamide], the “ALE THP1 HTRF YMIN” value came out at 11.4% and the midpoint of the response, the EC50, lay at 0.028 µM.

On to `C[C@@H](CO)Nc1cc(-n2ncc3cc(C#N)cnc32)ncc1C(=O)NC1CCC(CCN2CCN(c3ccc(C4CCC(=O)NC4=O)cc3)CC2)CC1` (some centres unmarked) [P-78], for which the “ALE THP1 HTRF YMIN” value worked out at 7.6% and the response was half-maximal at 0.009 µM (EC50).

`C[C@H](C#N)Nc1cc(-n2ncc3cc(C#N)c(N)nc32)ncc1C(=O)N[C@H]1CC[C@H](CCN2CCN(c3ccc(C4CCC(=O)NC4=O)cc3)[C@H](C)C2)CC1` (some centres unmarked) [P-142]: the “ALE THP1 HTRF YMIN” value was 9.7% and it took 0.046 µM to reach a half-maximal effect (EC50).

As to `CCNc1cc(Nc2ccc3ncc(F)cc3n2)ncc1C(=O)N[C@H]1CC[C@H](CCN2CCN(c3ccc(C4CCC(=O)NC4=O)cc3)CC2)CC1` (some centres unmarked) [P-138], the “ALE THP1 HTRF YMIN” value was found to be 42.1% and the concentration for a half-maximal effect (EC50) came to 1.28 µM.

As for `C[C@H](C#N)Nc1cc(-n2ncc3cc(C#N)cnc32)ncc1C(=O)N[C@H]1CC[C@H](CCN2CCN(c3ccc(C4CCC(=O)NC4=O)cn3)[C@H](C)C2)CC1` (some centres unmarked) [P-152], the “ALE THP1 HTRF YMIN” value was determined as 15.8% and it took 0.02 µM to reach a half-maximal effect (EC50).

For the compound `N#Cc1cnc2c(cnn2-c2cc(NC3CC3)c(C(=O)N[C@H]3CC[C@H](CCN4CCC5(CC4)CN(c4cccc(C6CCC(=O)NC6=O)c4)C5)CC3)cn2)c1` (some centres unmarked) [P-90], the “ALE THP1 HTRF YMIN” value came to 11.6% and it took 0.028 µM to reach a half-maximal effect (EC50).

For the compound `CN(C(=O)C1CCN(c2ccc3c(c2)C(=O)N(C2CCC(=O)NC2=O)C3)CC1)C1CCC(n2cc(-c3cnc(-n4ncc5cc(C#N)cnc54)cc3NC3CCCC3)nn2)CC1` (centres unmarked) [P-19], the “ALE THP1 HTRF YMIN” value turned out to be 38.0% and the EC50 turned out to be 0.017 µM.
